Values joined by “and” are separate entries in the source; they are usually repeats but may differ in a detail not shown here. Equal entries are not always repeated.
Legend:
[1] = SANET-ep Phase III study, safety and exposure (NCI CTCAE v4.03); type: in vivo, human; conditions: N = 129
Procedure: This study is a randomized, double-blind, placebo-controlled, multi-center Phase III study to assess the efficacy and safety of Surufatinib in treating advanced extra-pancreatic neuroendocrine tumors.
(§1) Surufatinib, 300 mg, once daily (QD), orally
(§2) Continuous administration (every 4 weeks as a treatment cycle).

[2] = tested on: advanced, well-differentiated pancreatic neuroendocrine tumors; assay: SANET-p Phase III study, efficacy (RECIST 1.1); type: in vivo, human; conditions: for Odds ratio, Disease control rate / Odds ratio, Objective response rate: vs placebo
Excerpt: The targeted population are progressive, locally advanced or distant metastatic, low- or intermediate grade (G1 or G2) pancreatic NETs patients. G1 is defined as <2 mitoses/10 high-power field [HPF] and/or <3% Ki-67 index; G2 is defined as 2-20/10 HPF and/or 3-20% Ki-67 index. If the mitotic ratio and Ki-67 index correspond to different grade, the higher grade should be used to assign classification. All patients must provide tumor samples for central pathology review to check as of whether the diagnostics and grade score comply with inclusion criteria. Patients must have radiological documentation of progression of disease within 12 months prior to randomization. Patients must have previously progressed no more than two types of systemic anti-tumor therapy, including long-acting somatostatin analogs (SSAs), interferon, PRRT (peptide receptor radionuclide therapy), mammalian target of rapamycin (mTOR) inhibitors or chemotherapy (all chemotherapies are deemed as a single therapy regardless of drug or time); patients who are unable or unwilling to receive such treatments are also eligible if all other criteria are met.
Approximately 195 patients will be randomly assigned (in 2:1 ratio) to the following treatment groups based on interactive web response system IWRS:
as §1, §2
According to the randomized result, the patients will receive continuous oral treatment, every 4-week treatment cycle until progression of disease occurs, intolerable toxicity or other protocol-specified end-of-treatment criteria is met.
In accordance with RECIST 1.1, the tumor should be assessed every 8 weeks (±3 days) within the first year and every 12 weeks (±3 days) after the patient has been treated for more than one year.
1) Primary therapeutic endpoint: PFS (according to RECIST 1.1 criteria)
2) Secondary therapeutic endpoint: Objective Response Rate of the tumor (ORR), Disease Control Rate (DCR), Duration of Response (DoR), Time to Response (TTR) and Overall Survival (OS) (according to RECIST 1.1 criteria)

[3] = tested on: advanced pancreatic NETs; assay: phase 1 study of surufatinib in patients from the United States; type: in vivo, human
Procedure: Although this trial was conducted fully in a Chinese patient population, the results appear to be applicable to Western patients. Encouraging results have been reported from an ongoing phase 1 study of surufatinib in patients from the United States with heavily treated advanced pancreatic NETs (4 median prior lines of therapy), with an objective response rate of 25.0% (4/16: 3 confirmed partial response and 1 unconfirmed partial response). The safety profile observed in this Western patient population was similar to those observed in the SANET-p trial, as well as in other clinical studies of surufatinib in NETs patients.
As compared with other trials involving patients with extra-pancreatic NETs, the population enrolled in this study was heterogenous. In addition, only Chinese patients were enrolled in this study, which may limit the extrapolation of the results to other populations: however, historically no ethnic differences in the efficacy of antiangiogenic agents for NETs have been reported.

[4] = Solubility of surufatinib; type: physicochemical
Excerpt: As used here, the term “surufatinib” (formerly named sulfatinib”)refers to N-(2-(dimethylamino)ethyl)-1-(3-(4-(2-methyl-1H-indol-5-yloxy)pyrimidin-2-ylamino)phenyl)methanesulfonamide or N-(2-(dimethylamino)ethyl)-1-(3-(4-(2-methyl-1H-indol-5-yloxy)pyrimidin-2-ylamino)phenyl)methanesulfonamide. Surufatinib is a small-molecule kinase inhibitor which mainly acts on VEGFRs-1, 2, 3, the FGFR1 and CSF1R. Surufatinib is a study drug formulated as an odorless, white or off-white powder in capsules, with strengths of 50 mg and 200 mg. […] Herein, “surufatinib” may be referred to as “drug,” “active agent,” “a therapeutically active agent,” or “API.”

[5] = treatment-related AE, safety population
[6] = ITT set, 95% CI, listed as surufatinib

Cc1cc2cc(Oc3ccnc(Nc4cccc(CS(=O)(=O)NCCN(C)C)c4)n3)ccc2[nH]1 [Surufatinib, N-(2-(dimethylamino)ethyl)-1-(3-((4-((2-methyl-1H-indol-5-yl)oxy)pyrimidin-2-yl)amino)phenyl)-methanesulfonamide]
hypertension resulting in dose interruption or reduction [1]: 15.5% | proteinuria resulting in dose interruption or reduction [1]: 29.5% | treatment discontinuation for adverse events [1]: 14.7% | Treatment-related adverse event, any grade ([1]; safety population): 97.7% | ALT increased, ≥Grade 3 [1, 5]: 3.1% | AST increased, ≥Grade 3 [1, 5]: 3.9% | Anemia, ≥Grade 3 [1, 5]: 4.7% | Hyperbilirubinemia, ≥Grade 3 [1, 5]: 3.9% | Hypertension, ≥Grade 3 [1, 5]: 36.4% | Protein urine present, ≥Grade 3 [1, 5]: 3.9% | Proteinuria, ≥Grade 3 [1, 5]: 19.4% | Duration of response ([2]; BIIRC-assessed): 15.2 months | Time to response ([2]; BIIRC-assessed): 3.9 months | Best overall response: Non-complete response, non-progressive disease ([2]; BIIRC-assessed, N = 104): 0 n | Odds ratio, Disease control rate ([2]; BIIRC-assessed): 2.5 | Odds ratio, Objective response rate ([2]; BIIRC-assessed): 8.8 | PFS (BIIRC assessment), median ([2]; ITT set, N = 113): 13.9 month | PFS (Investigator's assessment), median ([2]; ITT set, N = 113, 300 mg QD orally): 10.9 month | PFS (BIIRC assessment), HR (Surufatinib/Placebo) ([2]; ITT set, 95% CI): 0.339 (0.209, 0.549) | PFS (Investigator's assessment), HR (Surufatinib/Placebo) ([2]; ITT set, 95% CI): 0.491 (0.319, 0.755) | PFS (BIIRC assessment), HR (Surufatinib/Placebo) [2, 6]: 0.34 | PFS (Investigator's assessment), HR (Surufatinib/Placebo) [2, 6]: 0.49 | DoR, median ([2]; Table 4, N = 15): 15.2 month | TTR, median ([2]; Table 4, N = 15): 3.9 month | Disease control rate, BIIRC-assessed ([2]; interim ITT set, N = 104): 84.6% | Disease control rate, investigator-assessed ([2]; interim ITT set, N = 104): 80.8% | Objective response rate, BIIRC-assessed ([2]; interim ITT set, N = 104): 14.4% | Objective response rate, investigator-assessed ([2]; interim ITT set, N = 104): 19.2% | median PFS longer than in the placebo cohort ([2]; investigator assessment): 7.2 months | reduction of the risk of disease progression/death vs placebo ([2]; investigator assessment): 50.9% and 51% | reduction of the risk of disease progression/death vs placebo ([2]; investigator assessment, listed as surufatinib): 51% | Duration of response ([2]; investigator-assessed): 7.4 months | Time to response ([2]; investigator-assessed): 3.8 months | Best overall response: Partial response ([2]; investigator-assessed, N = 104): 20 n | Odds ratio, Disease control rate ([2]; investigator-assessed): 2.1 | Odds ratio, Objective response rate ([2]; investigator-assessed): 12.4 | DCR, OR (odds ratio) vs placebo ([2]; investigator, 95% CI): 2.1 (0.9, 4.8) | ORR, OR (odds ratio) vs placebo ([2]; investigator, 95% CI): 12.4 (1.8, 522.8) | objective response rate ([3]; advanced pancreatic NETs, 2/15): 13.3% | Disease control rate ([3]; advanced pancreatic NETs, 11/15): 73.3% | objective response rate ([3]; heavily treated advanced pancreatic NETs, 4/16 (3 confirmed, 1 unconfirmed partial response)): 25.0% | solubility in methyl alcohol or ethyl alcohol ([4]; methyl alcohol or ethyl alcohol): slightly soluble | solubility in water ([4]; water): insoluble
